Measurements taken from patent EP4775582A1, “MACROCYCLIC COMPOUND AND ANTIBODY-DRUG CONJUGATE THEREOF” (Genfleet Therapeutics (Shanghai) Inc., priority 2023, dated 2025).
In brackets after ≈: the same amount, converted by molar mass.

Legend:
[1] = Human liver microsomal stability experiment; type: in vitro ADME; conditions: human liver microsomes
Description: This experiment was intended to investigate the metabolic stability of the test compounds in human liver microsomes. The materials used in the experiment included 10 mM solutions of the test compounds and the control sample, human liver microsomes, and reduced nicotinamide adenine dinucleotide phosphate (NADPH) powder. In the experiment, a 100 mM potassium phosphate buffer was used as the buffer system.
The liver microsome working solution was prepared by diluting the liver microsome stock solution to 0.75 mg/mL using the 100 mM potassium phosphate buffer. Then, 5 µL of the 10 mM stock solution of the test compound was taken, and 195 µL of methanol was added. The mixture was well mixed to prepare a working solution A with a concentration of 0.25 mM. Subsequently, the working solution A was diluted to 1.5 µM using the liver microsome working solution to prepare a compound-liver microsome mixed solution. Additionally, NADPH powder was dissolved in 100 mM potassium phosphate buffer to prepare a 6 mM NADPH solution. The compound-liver microsome mixed solution was dispensed into a 96-well plate at 30 µL/well, with labeled time points of 0 min, 30 min, and 60 min. For 0-min samples, 180 µL of acetonitrile containing 100 ng/mL tolbutamide and 15 µL of the NADPH solution were added directly. The 96-well plate and the NADPH solution were then preheated under a 37 °C water bath for 5 min. After the preheating, 15 µL of the NADPH solution was added to each of the 30-min and 60-min sample wells. The plate was gently shaken for mixing and then incubated under the 37 °C water bath for the corresponding time. After the incubation was completed, 180 µL of acetonitrile containing 100 ng/mL tolbutamide was added to each sample well. The plate was sealed with a sealing film, shaken for 10 min (800 rpm/min), and then centrifuged for 15 min (4000 rpm). After the centrifugation, 50 µL of the supernatant was taken and added to a 96-well plate containing 150 µL of deionized water, and then the plate was sealed and shaken for 10 min (800 rpm) for uniform mixing. Subsequently, sample analysis was performed using liquid chromatography-tandem mass spectrometry (LC-MS/MS). […] For humans, the microsome protein-to-liver weight ratio was 45 mg/g, and the liver-to-body weight ratio was 20.7 g/kg.

[2] = Solubility experiment (HPLC, external standard); type: physicochemical; conditions: 37 °C, 24 h
Procedure, shortened: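 Solid compound (about 1 mg per 1 mL medium) was shaken at 37 °C for 24 h in pH 1.2, 4.5 or 7.4 media, then centrifuged and the supernatant diluted with acetonitrile/water 50/50. Concentration in μg/mL was found by HPLC against an external standard prepared from a DMSO stock.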

[3] = biological target: KRAS WT-cRAF (Homo sapiens, UniProt P01116+P62937); test: Assay for binding of KRAS to cRAF (HTRF, with Cyclophilin A), KRAS WT; conditions: read-out: KRAS WT-cRAF binding assay, GPPNP-KRAS WT, IC50 values
Description: (§3) The plate was centrifuged at 1000 rpm for 1 min and then incubated in the thermostatic incubator at 20 °C for 30 min. […] The plate was centrifuged at 1000 rpm for 1 min and then incubated in the thermostatic incubator at 20 °C for 60 min. […] The working solution was added to the aforementioned assay plate at 5 µL/well. The plate was centrifuged at 1000 rpm for 1 min and then incubated in the thermostatic incubator at 20 °C for 60 min.

[4] = biological target: KRAS G12V-cRAF (Homo sapiens, UniProt P01116+P62937, G12V); test: Assay for binding of KRAS to cRAF (HTRF, with Cyclophilin A), KRAS G12V; conditions: read-out: KRAS G12V-cRAF binding assay, GPPNP-KRAS G12V, IC50 values
Description: as §3

[5] = test system: H441 p-ERK; test: Cell p-ERK assay (HTRF), NCI-H441 cells; type: cell-based, human; conditions: NCI-H441 cells (KRAS G12V), 3 h incubation
Procedure, shortened: (§1)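 AsPC-1 (10000/well) or NCI-H441 (20000/well) cells were seeded overnight and then exposed to compound for 3 h at 37 °C. Lysates were probed for ERK phospho-T202/Y204 by HTRF with a 4-hour antibody incubation. IC50 values came from four-parameter fits of inhibition against log concentration.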

[6] = test system: AsPC-1 p-ERK; test: Cell p-ERK assay (HTRF), AsPC-1 cells; type: cell-based, human; conditions: AsPC-1 cells (KRAS G12D), 3 h incubation; read-out: AsPC-1 p-ERK IC50
Procedure, shortened: as §1

[7] = test system: NCI-H441 cells; test: 3D cell proliferation assay (CellTiter Glo-3D), NCI-H441; type: cell-based, human; conditions: NCI-H441 cells (KRAS G12V), 2% FBS, 5 days, read-out: H441 AP IC50
Procedure, shortened: (§2)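 Cells seeded at 800 per well (AsPC-1, NCI-H441) in 2% FBS medium and incubated overnight at 37 °C, 5% CO2. Compounds added next day from 10× stock, then 5 days' further culture. Viability read by CellTiter-Glo luminescence; IC50 from four-parameter fit of inhibition versus log concentration.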

[8] = test system: AsPC-1 cells; test: 3D cell proliferation assay (CellTiter Glo-3D), AsPC-1; type: cell-based, human; conditions: AsPC-1 cells (KRAS G12D), 3D, 2% FBS, 5 days; read-out: AsPC-1 AP IC50
Procedure, shortened: as §2

KRAS WT-cRAF, sequence (P01116 1-188 isoform P01116-2): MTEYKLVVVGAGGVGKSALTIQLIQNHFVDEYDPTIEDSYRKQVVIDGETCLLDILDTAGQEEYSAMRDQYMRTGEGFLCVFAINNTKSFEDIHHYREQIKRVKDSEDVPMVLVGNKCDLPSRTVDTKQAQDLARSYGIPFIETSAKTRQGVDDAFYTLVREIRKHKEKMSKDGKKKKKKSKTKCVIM
KRAS WT-cRAF, sequence (P62937 whole entry): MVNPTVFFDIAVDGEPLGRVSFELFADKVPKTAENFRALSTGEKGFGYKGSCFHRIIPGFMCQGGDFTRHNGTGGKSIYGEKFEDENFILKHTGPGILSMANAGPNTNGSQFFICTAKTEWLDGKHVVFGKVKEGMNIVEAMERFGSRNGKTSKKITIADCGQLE
KRAS G12V-cRAF, sequence (P01116 1-188 isoform P01116-2 G12V): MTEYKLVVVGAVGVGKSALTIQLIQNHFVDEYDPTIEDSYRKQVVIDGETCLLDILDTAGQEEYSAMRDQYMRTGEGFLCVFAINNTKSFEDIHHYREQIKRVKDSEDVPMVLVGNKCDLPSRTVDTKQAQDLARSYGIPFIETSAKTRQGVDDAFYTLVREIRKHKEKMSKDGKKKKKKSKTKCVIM
KRAS G12V-cRAF, sequence (P62937 whole entry): as the sequence (P62937 whole entry) above

Structure (SMILES) | half-life ([1]; NADPH, 37 °C) [min] | CLint scaled ([1]; 45 mg/g, 20.7 g/kg scaling) [mL/min/kg] | solubility at 24 h ([2]; ph 7.4 medium, pH 7.4, pH 7.4 medium) [µg/mL] | IC50 [3] [nM] | IC50 [4] [nM] | IC50 [5] [nM] | IC50 [6] [nM] | IC50 [7] [nM] | IC50 [8] [nM] | T1/2 ([1]; NADPH, 37 °C) [min] | Solubility at pH 7.4 (µg/mL) ([2]; pH 7.4 medium)
CCn1c(-c2cc(C#CCN3CCN(C(C)=O)CC3)cnc2[C@H](C)OC)c2c3cc(ccc31)-c1csc(n1)C[C@H](NC(=O)[C@H]1[C@H](C)[C@@H]1C)C(=O)N1CCC[C@H](N1)C(=O)OCC(C)(C)C2 (atropisomer, axis not shown) [Control compound 2] | 9.8 | 164 | 1.5 (≈ 1.68 µM) | 48.6 | 10.9 | – | – | – | – | – | –
CCn1c(-c2cc(C#CCN3CCC(C#N)(CN)CC3)cnc2[C@H](C)OC)c2c3cc(ccc31)-c1coc(n1)C[C@H](NC(=O)[C@H]1[C@@H]3COC[C@@H]31)C(=O)N1CCC[C@H](N1)C(=O)OCC(C)(C)C2 (atropisomer, axis not shown; (Ra)) [Compound Z166, (1R,5S,6r)-N-((6^3S,4S,Z)-(Ra)-1^2-(5-(3-(4-(aminomethyl)-4-cyanopiperidin-1-yl)prop-1-yn-1-yl)-2-((S)-1-methoxyethyl)pyridin-3-yl)-1^1-ethyl-10,10-dimethyl-5,7-dioxo-6^1,6^2,6^3,6^4,6^5,6^6-hexahydro-1^1H-8-oxa-2(4,2)-oxazola-1(5,3)-indola-6(1,3)-pyridazinacycloundecaphane-4-yl)-3-oxabicyclo[3.1.0]hexane-6-carboxamide] | – | – | – | 38.9 | 12.9 | 0.2 | 0.1 | 0.37 | 0.12 | 19.6 | 26.76
